We go through one sequence from PMC7340446, “Optimization of PTH/PTHrP Hybrid Peptides to Derive a Long‐Acting PTH Analog (LA‐PTH)” (JBMR Plus, 2020).

Where no end group is shown, it is not given here.

This data set can be described thus: Pharmacokinetics in normal rats, i.v., plasma peptide by ELISA. Type of data set: in vivo, rat. The following applies: i.v. 10 nmol/kg, plasma with protease inhibitors, n = 4 (M‐PTH/PTHrP) or 3 (PTH(1–34)). As for the experimental part:
For pharmacokinetic studies, plasma samples were prepared in the presence of protease inhibitors (aprotinin, leupeptin, EDTA). Plasma levels of PTH(1–34) were assessed by ELISA assay (Human PTH(1–34) Specific ELISA Kit; Immutopics Inc, San Clemente, CA, USA), and plasma levels of M‐PTH/PTHrP were assessed by ELISA assay (PTH‐RP 1–34 Human Enzyme Immunoassay Kit; Peninsula Laboratories International, San Carlos CA, USA) using M‐PTH/PTHrP peptides as standard solutions.
Figure 3 Pharmacodynamic and pharmacokinetic profiles of M‐PTH/PTHrP and PTH(1–34) in rats. (A) Effects of M‐PTH/PTHrP and PTH(1–34) on blood ionized Ca in TPTX rats by i.v. injection. M‐PTH/PTHrP and PTH(1–34) were injected intravenously in TPTX rats at the indicated doses, and blood samples were collected from the tail vein measured for ionized Ca; data are means ± SE; n = 5 or 3 (PTH(1–34)). *p < 0.05, **p < 0.01, ***p < 0.005 M‐PTH/PTHrP or PTH(1–34) versus TPTX‐vehicle. […] M‐PTH/PTHrP and PTH(1–34) each at a dose of 10 nmol/kg were i.v. administered, and blood samples were collected from the jugular vein in the presence of proteinase inhibitors (Aprotinin, Leupeptin, and EDTA) and the plasma samples were assessed for peptide concentration using a hPTHrP(1–34)‐targeted EIA for M‐PTH/PTHrP and an hPTH(1–34)‐targeted ELISA for PTH(1–34). […]
Background: An ELISA detects its analyte on a solid surface through an enzyme-linked reagent.

On to “AVAEIQLMHQRAKWIQDLRRRFFLHHLIAEIHTAEI [M‐PTH(1‐14)/PTHrP(15‐36), [Ala^1,3,12,Gln^10,Arg^11,Trp^14]‐PTH(1‐14)/PTHrP(15–36)]”, for which the “Time by which plasma concentration declined to the lowest detection level” value was at most 60 min.
